Structures can show the parent of a compound that is named as a salt.
What was measured:
Nitrosomonas spp. = assay: Nitrification of ammonium in soil incubated at 25° C. (ammonium recovery, nitrate accumulation); details: soil 25° C.; for Concentration of nitrate nitrogen / Recovery of Ammonium Nitrogen: 200 ppm N; for Effectiveness as nitrification inhibitor, in words: 20 weeks study
How it was run: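 Silt loam soil (100 g, low residual N) at 50% water saturation given ammonium sulfate at 200 ppm N plus test compound at 0.10–0.50 ppm, duplicates, incubated 25 °C for up to 20 weeks. Inorganic N extracted with 2M KCl; ammonium, nitrite and nitrate measured by steam distillation.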

[1] = system: corn (Dekalb T2000, B73×LH 38); assay: Field evaluation: corn ear leaf tissue nitrogen, silt loam plots; type: in vivo; details: for Corn Leaf Tissue Analysis (total N): ear leaf at silking
Text: (§1) Field Evaluation: Field evaluations are based on the N content of corn leaf tissue and grain yield utilizing two soil types. Replicate (4X) field plots are established at two different locations, one having (I) silt loam soil and one (II) with sandy loam soil. These soils had been previously cropped to non-fertilized corn to reduce the level of residual N. Maduramicin monoammonium salt is applied (0.25, 0.125, 0.07 ppm) with NH3 (84 or 168 kg N/ha) through a "downstream" by an injection system into silt loam plots. Nitrapyrin (0.25 ppm=0.56 kg a.i./ha), nitrogen checks, benzyl alcohol (1.16L/ha) (BA) and a O nitrogen check are included for comparison. Individual replicate plot sizes are 3.04M×22.8M (4, 76-cm corn rows×22.8M long) Anhydrous ammonia are injected on 76-cm centers.
Urea, treated or non-treated with Maduramicin monoammonium salt is broadcast on the surface of sandy loam plots. Plots are then planted with corn the day following treatment. Dekalb T2000 is planted 10 May on silt loam plots and Pioneer 3352 is planted 11 May in sandy loam plots.
(§2) Corn ear leaf tissues collected at silking on silt loam plots or 60 days post silking (on silt loam and sandy loam plots) are collected from each plot and assayed for total N (AOAC procedures). Grain yields are determined by harvesting the two center rows×15.2 m of each plot.

corn (Pioneer 3352) = assay: Field evaluation: yield of corn, sandy loam plots; type: in vivo; details: for AVERAGE YIELD 4-REPLICATES: sandy loam
Text: as §1
Plots are then planted with corn the day following treatment. Dekalb T2000 is planted 10 May on silt loam plots and Pioneer 3352 is planted 11 May in sandy loam plots.
as §2

Nitrobacter spp. = assay: Nitrite nitrogen in ammonium amended soil incubated at 25° C.; details: soil 25° C., 200 ppm N
Method: Determination of nitrite nitrogen and nitrate nitrogen in soil prepared in Example 1 above, which is amended with 200 ppm of nitrogen as aqueous ammonium sulfate, […], is determined using the nitrite and nitrate analysis of the American Organization of Analytical Chemists (AOAC pp. 653-655).

Compound: CO[C@@H]1[C@@H](OC)[C@H](C)[C@@](O)(CC(=O)O)O[C@H]1[C@H](C)[C@H]1O[C@@]2(CC[C@@](C)([C@H]3CC[C@@](C)([C@@H]4O[C@@H]([C@H]5O[C@](C)(O)[C@H](C)C[C@@H]5C)C[C@@H]4O[C@@H]4C[C@H](OC)[C@@H](OC)[C@H](C)O4)O3)O2)C[C@H](O)[C@H]1C [Maduramicin monoammonium salt, Maduramicin]
- Effectiveness compared with 0.5 ppm nitrapyrin, in words (Nitrosomonas spp.; 0.10 ppm): not as effective as the 0.5 ppm rate of nitrapyrin
- Concentration of nitrate nitrogen (Nitrosomonas spp.; 0.10 ppm, week 0): 18 PPM
- Recovery of Ammonium Nitrogen (Nitrosomonas spp.; 0.10 ppm, week 0): 195 PPM
- Concentration of nitrate nitrogen (Nitrosomonas spp.; 0.10 ppm, week 1): 20 PPM
- Recovery of Ammonium Nitrogen (Nitrosomonas spp.; 0.10 ppm, week 1): 168 PPM
- Concentration of nitrate nitrogen (Nitrosomonas spp.; 0.10 ppm, week 2): 19 PPM
- Recovery of Ammonium Nitrogen (Nitrosomonas spp.; 0.10 ppm, week 2): 178 PPM
- Concentration of nitrate nitrogen (Nitrosomonas spp.; 0.10 ppm, week 4): 24 PPM
- Recovery of Ammonium Nitrogen (Nitrosomonas spp.; 0.10 ppm, week 4): 176 PPM
- Concentration of nitrate nitrogen (Nitrosomonas spp.; 0.10 ppm, week 7): 75 PPM
- Recovery of Ammonium Nitrogen (Nitrosomonas spp.; 0.10 ppm, week 7): 125 PPM
- Concentration of nitrate nitrogen (Nitrosomonas spp.; 0.10 ppm, week 9): 59 PPM
- Recovery of Ammonium Nitrogen (Nitrosomonas spp.; 0.10 ppm, week 9): 110 PPM
- Concentration of nitrate nitrogen (Nitrosomonas spp.; 0.10 ppm, week 12): 152 PPM
- Recovery of Ammonium Nitrogen (Nitrosomonas spp.; 0.10 ppm, week 12): 55 PPM
- Concentration of nitrate nitrogen (Nitrosomonas spp.; 0.10 ppm, week 16): 153 PPM
- Recovery of Ammonium Nitrogen (Nitrosomonas spp.; 0.10 ppm, week 16): 67 PPM
- Concentration of nitrate nitrogen (Nitrosomonas spp.; 0.10 ppm, week 20): 134 PPM
- Recovery of Ammonium Nitrogen (Nitrosomonas spp.; 0.10 ppm, week 20): 39 PPM
- Specific inhibition of nitrification through activity against Nitrosomonas spp., in words (Nitrosomonas spp.; 0.1 to 0.5 ppm): appear to specifically inhibit nitrification through activity against Nitrosomonas spp.
- Concentration of nitrate nitrogen (Nitrosomonas spp.; 0.25 ppm, week 0): 19 PPM
- Recovery of Ammonium Nitrogen (Nitrosomonas spp.; 0.25 ppm, week 0): 194 PPM
- Concentration of nitrate nitrogen (Nitrosomonas spp.; 0.25 ppm, week 1): 18 PPM
- Recovery of Ammonium Nitrogen (Nitrosomonas spp.; 0.25 ppm, week 1): 162 PPM
- Concentration of nitrate nitrogen (Nitrosomonas spp.; 0.25 ppm, week 2): 19 PPM
- Recovery of Ammonium Nitrogen (Nitrosomonas spp.; 0.25 ppm, week 2): 164 PPM
- Concentration of nitrate nitrogen (Nitrosomonas spp.; 0.25 ppm, week 4): 19 PPM
- Recovery of Ammonium Nitrogen (Nitrosomonas spp.; 0.25 ppm, week 4): 187 PPM
- Concentration of nitrate nitrogen (Nitrosomonas spp.; 0.25 ppm, week 7): 21 PPM
- Recovery of Ammonium Nitrogen (Nitrosomonas spp.; 0.25 ppm, week 7): 198 PPM
- Concentration of nitrate nitrogen (Nitrosomonas spp.; 0.25 ppm, week 9): 25 PPM
- Recovery of Ammonium Nitrogen (Nitrosomonas spp.; 0.25 ppm, week 9): 185 PPM
- Concentration of nitrate nitrogen (Nitrosomonas spp.; 0.25 ppm, week 12): 23 PPM
- Recovery of Ammonium Nitrogen (Nitrosomonas spp.; 0.25 ppm, week 12): 192 PPM
- Concentration of nitrate nitrogen (Nitrosomonas spp.; 0.25 ppm, week 16): 64 PPM
- Recovery of Ammonium Nitrogen (Nitrosomonas spp.; 0.25 ppm, week 16): 164 PPM
- Concentration of nitrate nitrogen (Nitrosomonas spp.; 0.25 ppm, week 20): 85 PPM
- Recovery of Ammonium Nitrogen (Nitrosomonas spp.; 0.25 ppm, week 20): 102 PPM
- Time through which nitrification is delayed or inhibited (Nitrosomonas spp.; 0.5 ppm): ≥ 20 weeks
- Concentration of nitrate nitrogen (Nitrosomonas spp.; 0.50 ppm, week 0): 18 PPM
- Recovery of Ammonium Nitrogen (Nitrosomonas spp.; 0.50 ppm, week 0): 194 PPM
- Concentration of nitrate nitrogen (Nitrosomonas spp.; 0.50 ppm, week 1): 20 PPM
- Recovery of Ammonium Nitrogen (Nitrosomonas spp.; 0.50 ppm, week 1): 162 PPM
- Concentration of nitrate nitrogen (Nitrosomonas spp.; 0.50 ppm, week 2): 18 PPM
- Recovery of Ammonium Nitrogen (Nitrosomonas spp.; 0.50 ppm, week 2): 166 PPM
- Concentration of nitrate nitrogen (Nitrosomonas spp.; 0.50 ppm, week 4): 21 PPM
- Recovery of Ammonium Nitrogen (Nitrosomonas spp.; 0.50 ppm, week 4): 170 PPM
- Concentration of nitrate nitrogen (Nitrosomonas spp.; 0.50 ppm, week 7): 21 PPM
- Recovery of Ammonium Nitrogen (Nitrosomonas spp.; 0.50 ppm, week 7): 194 PPM
- Concentration of nitrate nitrogen (Nitrosomonas spp.; 0.50 ppm, week 9): 25 PPM
- Recovery of Ammonium Nitrogen (Nitrosomonas spp.; 0.50 ppm, week 9): 193 PPM
- Concentration of nitrate nitrogen (Nitrosomonas spp.; 0.50 ppm, week 12): 18 PPM
- Recovery of Ammonium Nitrogen (Nitrosomonas spp.; 0.50 ppm, week 12): 189 PPM
- Concentration of nitrate nitrogen (Nitrosomonas spp.; 0.50 ppm, week 16): 28 PPM
- Recovery of Ammonium Nitrogen (Nitrosomonas spp.; 0.50 ppm, week 16): 209 PPM
- Concentration of nitrate nitrogen (Nitrosomonas spp.; 0.50 ppm, week 20): 44 PPM
- Recovery of Ammonium Nitrogen (Nitrosomonas spp.; 0.50 ppm, week 20): 175 PPM
- Effectiveness as nitrification inhibitor, in words (Nitrosomonas spp.; X-14868A monammonium salt): most effective nitrification inhibitor
- Effectiveness as nitrification inhibitor, in words (Nitrosomonas spp.; X-14868 monoammonium salt): considerably more effective than nitrapyrin
- Corn Leaf Tissue Analysis (total N) ([1]; inhibitor 0.28 kg/ha, NH3 84 kg N/ha): 256 10^2 ug/g
- Corn Leaf Tissue Analysis (total N) ([1]; inhibitor 0.28 kg/ha, NH3 168 kg N/ha): 275 10^2 ug/g
- Corn Leaf Tissue Analysis (total N) ([1]; inhibitor 0.56 kg/ha, NH3 84 kg N/ha): 258 10^2 ug/g
- Corn Leaf Tissue Analysis (total N) ([1]; inhibitor 0.56 kg/ha, NH3 168 kg N/ha): 281 10^2 ug/g
- More nitrogen in leaf tissue than control plots with similar nitrogen ([1]; silt loam plots): 15-25%
- Tissue N compared with nitrapyrin-treated plants, in words ([1]; three rates, silt loam plots): slightly higher than nitrapyrin-treated plants
- Yield at the sandy loam location, in words (corn (Pioneer 3352); 0.56 kg a.i./hectare, both rates of NH3 and the lower rate of urea): significantly higher
- AVERAGE YIELD 4-REPLICATES (corn (Pioneer 3352); N 84 kg/ha as NH3, chemical 0.11 kg/ha): 155.7 HECTOLITERS/HECTARE
- AVERAGE YIELD 4-REPLICATES (corn (Pioneer 3352); N 84 kg/ha as NH3, chemical 0.28 kg/ha): 159.2 HECTOLITERS/HECTARE
- AVERAGE YIELD 4-REPLICATES (corn (Pioneer 3352); N 84 kg/ha as NH3, chemical 0.56 kg/ha): 165.3 HECTOLITERS/HECTARE
- AVERAGE YIELD 4-REPLICATES (corn (Pioneer 3352); N 168 kg/ha as NH3, chemical 0.11 kg/ha): 163.6 HECTOLITERS/HECTARE
- AVERAGE YIELD 4-REPLICATES (corn (Pioneer 3352); N 168 kg/ha as NH3, chemical 0.28 kg/ha): 174.9 HECTOLITERS/HECTARE
- AVERAGE YIELD 4-REPLICATES (corn (Pioneer 3352); N 168 kg/ha as NH3, chemical 0.56 kg/ha): 176.6 HECTOLITERS/HECTARE
- Concentration of nitrite nitrogen (Nitrobacter spp.; 0.10 ppm, week 0): 6 ppm
- Concentration of nitrite nitrogen (Nitrobacter spp.; 0.10 ppm, week 1): 17 ppm
- Concentration of nitrite nitrogen (Nitrobacter spp.; 0.10 ppm, week 2): 2 ppm
- Concentration of nitrite nitrogen (Nitrobacter spp.; 0.10 ppm, week 4): 3 ppm
- Concentration of nitrite nitrogen (Nitrobacter spp.; 0.10 ppm, week 7): 12 ppm
- Concentration of nitrite nitrogen (Nitrobacter spp.; 0.10 ppm, week 9): 49 ppm
- Concentration of nitrite nitrogen (Nitrobacter spp.; 0.10 ppm, week 12): 9 ppm
- Concentration of nitrite nitrogen (Nitrobacter spp.; 0.10 ppm, week 16): 14 ppm
- Concentration of nitrite nitrogen (Nitrobacter spp.; 0.10 ppm, week 20): 56 ppm
- Concentration of nitrite nitrogen (Nitrobacter spp.; 0.25 ppm, week 0): 7 ppm
- Concentration of nitrite nitrogen (Nitrobacter spp.; 0.25 ppm, week 1): 2 ppm
- Concentration of nitrite nitrogen (Nitrobacter spp.; 0.25 ppm, week 2): 7 ppm
- Concentration of nitrite nitrogen (Nitrobacter spp.; 0.25 ppm, week 4): 0 ppm
- Concentration of nitrite nitrogen (Nitrobacter spp.; 0.25 ppm, week 7): -5 ppm
- Concentration of nitrite nitrogen (Nitrobacter spp.; 0.25 ppm, week 9): 12 ppm
- Concentration of nitrite nitrogen (Nitrobacter spp.; 0.25 ppm, week 12): 0 ppm
- Concentration of nitrite nitrogen (Nitrobacter spp.; 0.25 ppm, week 16): -2 ppm
- Concentration of nitrite nitrogen (Nitrobacter spp.; 0.25 ppm, week 20): 33 ppm
- Concentration of nitrite nitrogen (Nitrobacter spp.; 0.50 ppm, week 0): 8 ppm
- Concentration of nitrite nitrogen (Nitrobacter spp.; 0.50 ppm, week 1): 10 ppm
- Concentration of nitrite nitrogen (Nitrobacter spp.; 0.50 ppm, week 2): 4 ppm
- Concentration of nitrite nitrogen (Nitrobacter spp.; 0.50 ppm, week 4): 4 ppm
- Concentration of nitrite nitrogen (Nitrobacter spp.; 0.50 ppm, week 7): -8 ppm
- Concentration of nitrite nitrogen (Nitrobacter spp.; 0.50 ppm, week 9): -4 ppm
- Concentration of nitrite nitrogen (Nitrobacter spp.; 0.50 ppm, week 12): 4 ppm
- Concentration of nitrite nitrogen (Nitrobacter spp.; 0.50 ppm, week 16): -13 ppm
- Concentration of nitrite nitrogen (Nitrobacter spp.; 0.50 ppm, week 20): 14 ppm

— patent publication US4746349A, “Method and compositions for suppressing the nitrification of ammonium in plant growth medium” (American Cyanamid Company, priority 1986, dated 1988)
